In ChEMBL document CHEMBL1142040, “Melanocortin subtype-4 receptor agonists containing a piperazine core with substituted aryl sulfonamides” (Bioorg Med Chem Lett, 2005):
Values joined by “and” are separate entries in the source; they are usually repeats but may differ in a detail not shown here. Equal entries are not always repeated.

Columns and labels:
Melanocortin receptor 4 [1] = biological target: T1, Melanocortin receptor 4 (Homo sapiens, UniProt P32245); test: In vitro inhibitory concentration required against melanocortin 4 receptor using [125I]NDP-MSH as radioligand
T1 sequence (P32245 whole entry): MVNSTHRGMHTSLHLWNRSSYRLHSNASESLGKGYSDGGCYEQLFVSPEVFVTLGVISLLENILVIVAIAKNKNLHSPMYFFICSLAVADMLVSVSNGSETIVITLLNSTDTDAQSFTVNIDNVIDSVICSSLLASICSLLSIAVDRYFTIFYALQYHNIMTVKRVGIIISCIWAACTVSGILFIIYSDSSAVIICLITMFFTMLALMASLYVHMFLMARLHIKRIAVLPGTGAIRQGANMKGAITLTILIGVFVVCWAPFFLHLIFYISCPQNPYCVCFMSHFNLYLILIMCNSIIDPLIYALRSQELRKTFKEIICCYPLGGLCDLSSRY

Melanocortin receptor 4 [2] = biological target: T1, Melanocortin receptor 4; test: Effective concentration determined against melanocortin-4 receptor; assay type: functional
Melanocortin receptor 3 = Melanocortin receptor 3 (Homo sapiens, UniProt P41968); test: Effective concentration determined against melanocortin-3 receptor; assay type: functional
Chain of Melanocortin receptor 3 (P41968 whole entry): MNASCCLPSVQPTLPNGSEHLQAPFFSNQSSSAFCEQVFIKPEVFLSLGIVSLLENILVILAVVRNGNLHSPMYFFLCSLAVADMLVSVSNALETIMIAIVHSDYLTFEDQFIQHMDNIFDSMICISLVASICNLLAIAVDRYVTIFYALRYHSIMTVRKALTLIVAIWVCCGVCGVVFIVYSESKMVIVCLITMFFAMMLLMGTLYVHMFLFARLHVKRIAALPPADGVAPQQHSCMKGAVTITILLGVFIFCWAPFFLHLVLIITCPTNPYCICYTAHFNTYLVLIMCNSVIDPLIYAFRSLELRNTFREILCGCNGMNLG

[3] = Brain concentration of compound was determined in mice; assay type: ADME; settings: mouse, in vivo
[4] = Clearance value of compound was determined in mice; assay type: ADME, organism-based; settings: mouse, in vivo
[5] = Bioavailability concentration of compound was determined in mice; assay type: ADME, organism-based; settings: mouse, in vivo
[6] = Tmax of compound was determined in mice; assay type: ADME; settings: mouse, in vivo
Melanocortin receptor 5 = Melanocortin receptor 5 (Homo sapiens, UniProt P33032); test: Effective concentration determined against melanocortin-5 receptor; assay type: functional
Chain of Melanocortin receptor 5 (P33032 whole entry): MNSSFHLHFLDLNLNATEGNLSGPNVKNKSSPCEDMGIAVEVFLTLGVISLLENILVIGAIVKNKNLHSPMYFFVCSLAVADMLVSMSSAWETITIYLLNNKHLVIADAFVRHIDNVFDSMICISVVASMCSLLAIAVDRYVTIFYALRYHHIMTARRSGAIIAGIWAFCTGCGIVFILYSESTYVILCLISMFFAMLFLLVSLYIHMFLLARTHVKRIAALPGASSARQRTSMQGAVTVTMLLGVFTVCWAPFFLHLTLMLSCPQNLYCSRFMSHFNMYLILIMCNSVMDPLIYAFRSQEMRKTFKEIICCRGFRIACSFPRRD

[7] = Half life of compound was determined in mice; assay type: ADME; settings: mouse, in vivo
[8] = Volume of distribution of compound was determined in mice; assay type: ADME, organism-based; settings: mouse, in vivo
[9] = Maximum plasma level concentration was determined in mice; assay type: ADME, organism-based; settings: mouse
[10] = biological target: Melanocortin receptor (M4 and M5) (Homo sapiens) (UniProt P32245+P33032); test: Selectivity for melanocortin 4 receptor compared to melanocortin 5 receptor in vitro; assay type: functional
Chain of Melanocortin receptor (M4 and M5) (Homo sapiens) (P32245 whole entry, looked up): as the sequence (P32245 whole entry) above
Chain of Melanocortin receptor (M4 and M5) (Homo sapiens) (P33032 whole entry, looked up): as the sequence (P33032 whole entry) above

IC50 (Melanocortin receptor 4 [1]) [nM] | EC50 (Melanocortin receptor 4 [2]) | Structure (SMILES) | further results
94 | 60 nM | CS(=O)(=O)N(CC1CC1)c1ccccc1N1CCN(C(=O)[C@@H](Cc2ccc(Cl)cc2)NC(=O)c2cnc3ccccc3c2)CC1 | –
210 | 4 nM | CN(c1ccccc1N1CCN(C(=O)[C@@H](Cc2ccc(Cl)cc2)NC(=O)[C@@H]2Cc3ccccc3CN2)CC1)S(C)(=O)=O | –
– | 0.44 nM | CCCN(c1ccccc1N1CCN(C(=O)[C@@H](Cc2ccc(Cl)cc2)NC(=O)[C@@H]2Cc3ccccc3CN2)CC1)S(C)(=O)=O | EC50 (Melanocortin receptor 3): > 10000 nM; Cbrain [3]: 130 ng/g; Cl/F [4]: 30 mL/min/kg; bioavailability [5]: 20%; Tmax [6]: 15 min; EC50 (Melanocortin receptor 5): 210 nM; T1/2 [7]: 26.4 min; V2/F [8]: 19 L/kg; Cmax [9]: 1400 ng/mL
67 | 1.8 nM | CS(=O)(=O)N(CC1CC1)c1ccccc1N1CCN(C(=O)[C@@H](Cc2ccc(Cl)cc2)NC(=O)C2CN(C3CCCCC3)C2)CC1 | –
83 | 49 nM | CC(C)CCN1CC(C(=O)N[C@H](Cc2ccc(Cl)cc2)C(=O)N2CCN(c3ccccc3N(CC3CC3)S(C)(=O)=O)CC2)C1 | –
730 | 120 nM | O=C(N[C@H](Cc1ccc(Cl)cc1)C(=O)N1CCN(c2ccccc2NS(=O)(=O)c2ccccc2)CC1)[C@@H]1Cc2ccccc2CN1 | –
340 | 11 nM | CS(=O)(=O)Nc1ccccc1N1CCN(C(=O)[C@@H](Cc2ccc(Cl)cc2)NC(=O)[C@@H]2Cc3ccccc3CN2)CC1 | Selectivity [10]: 21; EC50 (Melanocortin receptor 3): > 10000 nM; EC50 (Melanocortin receptor 5): 230 nM
120 | 12 nM | CN1CCC(C(=O)N[C@H](Cc2ccc(Cl)cc2)C(=O)N2CCN(c3ccccc3N(CC3CC3)S(C)(=O)=O)CC2)CC1 | –
280 | 63 nM | CS(=O)(=O)N(CC1CC1)c1ccccc1N1CCN(C(=O)[C@@H](Cc2ccc(Cl)cc2)NC(=O)c2ccc3ccccc3c2)CC1 | –
110 | 8.6 nM | CCN1CCC(C(=O)N[C@H](Cc2ccc(Cl)cc2)C(=O)N2CCN(c3ccccc3N(CC3CC3)S(C)(=O)=O)CC2)CC1 | –
720 | 65 nM | O=C(N[C@H](Cc1ccc(Cl)cc1)C(=O)N1CCN(c2ccccc2NS(=O)(=O)Cc2ccccc2)CC1)[C@@H]1Cc2ccccc2CN1 | –
35 | < 0.1 nM | CS(=O)(=O)N(CCN)c1ccccc1N1CCN(C(=O)[C@@H](Cc2ccc(Cl)cc2)NC(=O)[C@@H]2Cc3ccccc3CN2)CC1 | Selectivity [10]: 79; EC50 (Melanocortin receptor 3): > 10000 nM; EC50 (Melanocortin receptor 5): 79 nM
29 | 27 nM | CS(=O)(=O)N(CC1CC1)c1ccccc1N1CCN(C(=O)[C@@H](Cc2ccc(Cl)cc2)NC(=O)c2ccc3ncccc3c2)CC1 | –
410 | 18 nM | CS(=O)(=O)N(CC1CC1)c1ccccc1N1CCN(C(=O)[C@@H](Cc2ccc(Cl)cc2)NC(=O)c2cc3ccccc3cn2)CC1 | –
61 | 0.58 nM and 0.6 nM | CS(=O)(=O)N(CC1CC1)c1ccccc1N1CCN(C(=O)[C@@H](Cc2ccc(Cl)cc2)NC(=O)[C@@H]2Cc3ccccc3CN2)CC1 | Selectivity [10]: 170; EC50 (Melanocortin receptor 3): 7000 nM; EC50 (Melanocortin receptor 5): 170 nM
